Measured values from ChEMBL document CHEMBL3297738, “Anmindenols A and B, inducible nitric oxide synthase inhibitors from a marine-derived Streptomyces sp” (J Nat Prod, 2014).
pIC50: −log10 of the molar value. Activity calls are given as the source filed them. No cut-off for these calls is given here.

Key:
Assay type in all cases: functional, cell-based
A498 = assay: Cytotoxicity against human A498 cells up to 100 uM
RAW264.7 = assay: Inhibition of LPS-induced nitric oxide production in mouse RAW264.7 cells after 20 hrs by Griess assay; details: RAW264.7, 20 h
PANC-1 = assay: Cytotoxicity against human PANC1 cells up to 100 uM
MiaPaCa = assay: Cytotoxicity against human MiaPaCa cells up to 100 uM

## Cc1ccc2c(c1)/C(=C/C(C)C)C=C2CO
A498
  Activity: inactive
RAW264.7
  pIC50: 4.64
PANC-1
  Activity: inactive
MiaPaCa
  Activity: inactive

## Cc1ccc2c(c1)/C(=C/C(C)C)C[C@]2(O)CO
A498
  Activity: inactive
RAW264.7
  pIC50: 4.72
PANC-1
  Activity: inactive
MiaPaCa
  Activity: inactive
